Measured values taken from patent US20250283073A1 (ORNA THERAPEUTICS, INC., priority 2021, published 2025).
Like-named read-outs stand apart in the source and are kept apart here.

B1: caprine kobuvirus: "IRES sourced from the indicated virus" in circular RNA constructs "encoding anti-murine CD19 CAR" (nucleic acid)
DNA: GTGGCCACGCCCGGGCCACCGATACTTCCCTTCACTCCTTCGGGACTGTTGGGGAGGAACACAACAGGGCTCCCCTGTTTTCCCATTCCTTCCCCCTTTTCCCAACCCCAACCGCCGTATCTGGTGGCGGCAAGACACACGGGTCTTTCCCTCTAAAGCACAATTGTGTGTGTGTCCCAGGTCCTCCTGCGTACGGTGCGGGAGTGCTCCCACCCAACTGTTGTAAGCCTGTCCAACGCGTCGTCCTGGCAAGACTATGACGTCGCATGTTCCGCTGCGGATGCCGACCGGGTAACCGGTTCCCCAGTGTGTGTAGTGCGATCTTCCAGGTCCTCCTGGTTGGCGTTGTCCAGAAACTGCTTCAGGTAAGTGGGGTGTGCCCAATCCCTACAAAGGTTGATTCTTTCACCACCTTAGGAATGCTCCGGAGGTACCCCAGCAACAGCTGGGATCTGACCGGAGGCTAATTGTCTACGGGTGGTGTTTCCTTTTTCTTTTCACACAACTCTACTGCGTACAACTCACTGACTATCCACTTGCTCTGTCACG
modifications: Description of Unknown: CK1.4; Caprine Kobuvirus variant sequence
B2: CK-739 IRES: "the IRES having the sequence of SEQ ID NO: 3282"; "had a long scanning tract" (nucleic acid)
DNA: B1 DNA
modifications: Description of Unknown: CK1.4; Caprine Kobuvirus variant sequence

Assays:
[1] = RNA encapsulation / entrapment by Ribogreen assay; format: physicochemical; conditions: LNPs with circular RNA, named by ionizable lipid
Method: A QUANT-ITT- RIBOGREEN® RNA assay (Invitrogen Corporation Carlsbad, CA) can be used to evaluate the encapsulation of circRNA by the nanoparticle composition. The samples are diluted to a concentration of approximately 5 μg/mL or 1 μg/mL in a TE buffer solution (10 mM Tris-HCl, 1 mM EDTA, pH 7.5). 50 μL of the diluted samples are transferred to a polystyrene 96 well plate and either 50 μL of TE buffer or 50 μL of a 2-4% Triton X-100 solution is added to the wells. The plate is incubated at a temperature of 37° C. for 15 minutes. The RIBOGREEN® reagent is diluted 1:100 or 1:200 in TE buffer, and 100 μL of this solution is added to each well. The fluorescence intensity can be measured using a fluorescence plate reader (Wallac Victor 1420 Multilabel Counter; Perkin Elmer, Waltham, MA) at an excitation wavelength of, for example, about 480 nm and an emission wavelength of, for example, about 520 nm. The fluorescence values of the reagent blank are subtracted from that of each of the samples and the percentage of free circRNA is determined by dividing the fluorescence intensity of the intact sample (without addition of Triton X-100) by the fluorescence value of the disrupted sample (caused by the addition of Triton X-100). C.
For transfer vehicle compositions including RNA, a QUANT-IT- RIBOGREEN® RNA assay (Invitrogen Corporation Carlsbad, CA) can be used to evaluate the encapsulation of RNA by the transfer vehicle composition. […] The fluorescence intensity can be measured using a fluorescence plate reader (Wallac Victor 1420 Multilablel Counter; Perkin Elmer, Waltham, MA) at an excitation wavelength of, for example, about 480 nm and an emission wavelength of, for example, about 520 nm. The fluorescence values of the reagent blank are subtracted from that of each of the samples and the percentage of free RNA is determined by dividing the fluorescence intensity of the intact sample (without addition of Triton X-100) by the fluorescence value of the disrupted sample (caused by the addition of Triton X-100). […]

[2] = LNP particle size (Z-average) and polydispersity index by dynamic light scattering; format: physicochemical; conditions: LNPs with circular RNA, named by ionizable lipid; for Z-Average(nm): in PBS pH 7.4
Method: The microfluidic chamber is cleaned with ethanol and neMYSIS syringe pumps are prepared by loading a syringe with the RNA solution and another syringe with the ethanolic lipid. Both syringes are loaded and under the control of neMESYS software. The solutions are then applied to the mixing chip at an aqueous to organic phase ratio of 2 and a total flow rate of 22 ml/min (14.67 ml/min for RNA and 7.33 ml/min for the lipid solution. Both pumps are started synchronously. The mixer solution that flowed from the microfluidic chip is collected in 4×1 ml fractions with the first fraction being discarded as waste. The remaining solution containing the circRNA-transfer vehicles is exchanged by using G-25 mini desalting columns to 10 mM Tris-HCl, 1 mM EDTA, at pH 7.5, as described above. Following buffer exchange, the materials are characterized for size, and RNA entrapment through DLS analysis and Ribogreen assays, respectively.
(§1) Dialyzed LNPs were filtered using 0.2 μm filter. Prior to in vivo dosing, LNPs were diluted in PBS. LNP sizes were determined by dynamic light scattering. A cuvette with 1 mL of 20 μg/mL LNPs in PBS (pH 7.4) was measured for Z-average using the Malvern Panalytical Zetasizer Pro. The Z-average and polydispersity index were recorded.
as §1

[3] = cited from earlier work
splenic immune cells = test: Cre circRNA LNP transfection of splenic immune cells in Ai9 Cre reporter mice (tdTomato); format: in vivo; conditions: 0.5 mg/kg Cre circRNA LNP i.v., 48 hr, named by ionizable lipid
Method: Circular RNAs encoding Cre recombinase (Cre) are encapsulated into lipid nanoparticles as previously described. Female, 6-8 week old B6.Cg-Gt(ROSA)26Sortm9(CAG-tdTomato)Hze/J (Ai9) mice were dosed with lipid nanoparticles at 0.5 mg/kg RNA intravenously. Fluorescent tdTomato protein was transcribed and translated in Ai9 mice upon Cre recombination, meaning circular RNAs have been delivered to and translated in tdTomato+ cells. After 48 hr, mice were euthanized and the spleens were harvested, processed into a single cell suspension, and stained with various fluorophore-conjugated antibodies for immunophenotyping via flow cytometry.
Ai9 mice (B6.Cg-Gt(ROSA)26Sortm9(CAG-tdTomato)Hze/J, female, 6-8 weeks, n=3 per group) were injected i.v. with 0.5 mg/kg Cre circRNA LNPs or PBS. Ai9 mice transcribe and translate the fluorescent reporter tdTomato upon Cre recombination; meaning cells which are tdTomato+ have successfully been transfected with Cre circRNA. […] Flow cytometry was performed using an Attune Nxt Flow Cytometer (Thermo).

[4] = In vivo FLuc expression by IVIS (whole body and organs) after LNP-circRNA dosing; design: species or system CD-1 or c57BL/6J mice; conditions: mice, 0.5 mg/kg luciferase circRNA LNP i.v., named by ionizable lipid
Method: Circular or linear RNA encoding FLuc was generated and loaded into transfer vehicles with the following formulation: 50% ionizable Lipid 10b-15 represented by
10% DSPC, 1.5% PEG-DMG, 38.5% cholesterol. CD-1 mice were dosed at 0.2 mg/kg and luminescence was measured at 6 hours (live IVIS) and 24 hours (live IVIS and ex vivo IVIS). Total Flux (photons/second over a region of interest) of the liver, spleen, kidney, lung, and heart was measured (FIGS. 25 and 26).
Female CD-1 or female c57BL/6J mice ranging from 22-25 g were dosed at 0.5 mg/kg RNA intravenously. Six hours after injection, mice were injected intraperitoneally with 200 μL of D-luciferin at 15 mg/mL concentration. 5 minutes after injection, mice were anesthetized using isoflurane, and placed inside the IVIS Spectrum In Vivo Imaging System (Perkin Elmer) with dorsal side up. Post 10 minutes injection, mice were scanned for luminescence. Mice were euthanized and organs were extracted within 25 minutes of luciferin injection to scan for luminescence in liver, spleen, kidneys, lungs, and heart. Images (FIGS. 33A-B, 34A-B, 35A-B) were analyzed using Living Images (Perkin Elmer) software. Regions of interest were drawn to obtain flux and average radiance and analyzed for biodistribution of protein expression (FIG. 32A-B).

1C1C7 cells [5] = test: Anti-murine CD19 CAR expression in lipotransfected 1C1C7 cells; format: cell-based; conditions: 24 hours after lipotransfection, circRNA named by IRES source virus
Method: After 24 hours, 1C1C7 cells were incubated with His-tagged recombinant murine CD19 (Sino Biological) protein, then stained with a secondary anti-His antibody. Afterwards, the cells were analyzed via flow cytometry.

1C1C7 cells [6] = test: Gaussia luciferase expression and stability by IRES in 1C1C7 cells; conditions: 1C1C7, 24 and 48 hours

| Molecule | RNA Entrapment(%) [1] | PDI [2] | Z-Average(nm) [2] | also measured |
| --- | --- | --- | --- | --- |
| CCCCCCCCCCCCCCSCCOC(=O)CCN(CCCn1ccnc1)CCC(=O)OCCSCCCCCCCCCCCCCC [Lipid 93-S14, bis(2-(tetradecylthio)ethyl) 3,3′-((3-(1H-imidazol-1-yl)propyl)azanediyl)dipropionate] | 95% | 0.04 | 74 nm |  |
| CCCCCCCCOC(=O)CCCCCCCCCN(CCCCCCCCCC(=O)OCCCCCCCC)CCN(C)C [Lipid I-13] |  |  |  | pKa ([3]; Table 1, Representative Lipids of Formula I): 6.15 |
| CCCCCCCCCCCCCCSCCOC(=O)CCN(CCCn1ccnc1C)CCC(=O)OCCSCCCCCCCCCCCCCC [Lipid 22-S14, bis(2-(tetradecylthio)ethyl) 3,3′-((3-(2-methyl-1H-imidazol-1-yl)propyl)azanediyl)dipropionate] | 97% | 0.05 | 64 nm |  |
| CCCCCCCCCOC(=O)CCCCCCCN(CCO)CCCCCCCC(=O)OC(CCCCCCCC)CCCCCCCC [Lipid 10b-15] |  |  |  | splenic immune cells expressing tdTomato (splenic immune cells): effective at delivering circular RNAs to many splenic immune cell subsets; ex vivo IVIS tissue expression and spleen to liver ratio [4]: maintaining the desired spleen to liver ratios |
| CCCCCCCCC(CCCCCC)C(=O)OCCCCCCN(CCCCCCOC(=O)C(CCCCCC)CCCCCCCC)CCCn1ccnc1 (centres unmarked) [Lipid 10a-26, ((3-(1H-imidazol-1-yl)propyl)azanediyl)bis(hexane-6,1-diyl) bis(2-hexyldecanoate)] | 96% | 0.04 | 84 nm | whole-body total flux (IVIS) ([4]; 6 hours): increased whole-body total flux; ex vivo IVIS tissue expression and spleen to liver ratio [4]: increased overall expression |
| CCCCCCCCC(CCCCCCCC)COC(=O)CCCCN(CCCCO)CCCCC(=O)OCC(CCCCCCCC)CCCCCCCC [III-15] |  |  |  | pKa ([3]; Table 3, Representative Compounds of Formula (III)): 6.14 |
| B1 |  |  |  | anti-mouse CD19 CAR expression (1C1C7 cells [5]): capable of driving expression of an anti-mouse CD19 CAR |
| B2 |  |  |  | expression after terminal or scanning tract deletions of the IRES (1C1C7 cells [6]): relatively unaffected by deletions in the scanning tract |
